# Experimental data from patent US20130252890A1, “6,7-DIHYDRO-5H-BENZO[7]ANNULENE DERIVATIVES, PROCESS FOR PREPARATION THEREOF, PHARMACEUTICAL PREPARATIONS COMPRISING THEM, AND THE USE THEREOF FOR PRODUCTION OF MEDICAMENTS” (BAYER INTELLECTUAL PROPERTY GMBH, priority 2010, published 2013).
# pIC50: −log10 of the molar value.
# Biological target: T1, oestrogen receptor (ER) (Homo sapiens, UniProt P03372)
# T1 construct: These MVLN cells express, along with the functional oestrogen receptor (ER), a reporter construct; endogenous in cells; host or cells: MVLN cells (MCF7 derivative carrying a luciferase reporter construct)
# T1 sequence (P03372 1-595): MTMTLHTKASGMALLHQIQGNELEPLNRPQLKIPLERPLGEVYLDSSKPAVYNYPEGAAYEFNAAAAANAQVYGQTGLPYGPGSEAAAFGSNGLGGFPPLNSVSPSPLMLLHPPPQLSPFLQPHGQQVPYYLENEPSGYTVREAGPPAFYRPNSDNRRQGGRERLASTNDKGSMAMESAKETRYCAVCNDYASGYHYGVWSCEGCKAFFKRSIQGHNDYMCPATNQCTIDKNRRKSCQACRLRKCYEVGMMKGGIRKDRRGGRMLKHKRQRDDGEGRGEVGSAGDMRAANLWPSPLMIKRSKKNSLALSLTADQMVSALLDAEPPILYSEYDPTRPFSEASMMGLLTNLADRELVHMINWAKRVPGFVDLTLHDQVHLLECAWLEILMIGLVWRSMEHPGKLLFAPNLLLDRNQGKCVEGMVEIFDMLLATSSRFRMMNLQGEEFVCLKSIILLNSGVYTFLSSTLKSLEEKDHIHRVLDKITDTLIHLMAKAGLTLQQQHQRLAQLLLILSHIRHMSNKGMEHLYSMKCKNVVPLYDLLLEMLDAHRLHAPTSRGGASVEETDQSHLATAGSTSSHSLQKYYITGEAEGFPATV
# Assay: Anti-oestrogenic action in MVLN cells (inhibition of estradiol-induced luciferase)
# Assay type: cell-based
# Conditions: inhibition of estradiol-induced luciferase signal, value of Ex. 44 is a mean value, read-out: Antioestrogenic action in vitro: MVLN transactivation antagonism IC50
# Text: The anti-oestrogenic action of the claimed pharmacological compounds was investigated in so-called MVLN cells in vitro. MVLN cells are derivatives of the hormone-responsive MCF7 breast cancer cells known by a person skilled in the art. These MVLN cells express, along with the functional oestrogen receptor (ER), a reporter construct, which under ER-activation expresses luciferase. Determination of the activity of the induced luciferase permits a direct conclusion on the oestrogen properties of substances. To investigate the anti-oestrogenic properties of the pharmacological compounds, they were investigated in the presence of oestrogen for their potential for inhibiting the luciferase signal induced by estradiol. The claimed pharmacological test substances were investigated in MVLN cells for their anti-oestrogenic potential, as described (see Table 2).
row,Structure (SMILES),pIC50
1,"CN(CCCCCCC1=C(c2cc(F)cc(F)c2)CCCc2cc(O)ccc21)CCCS(=O)(=O)CCC(F)(F)C(F)(F)F [Example 3, 8-(3,5-Difluorophenyl)-9-[6-(methyl{3-[(3,3,4,4,4-pentafluorobutyl)sulphonyl]propyl}amino)hexyl]-6,7-dihydro-5H-benzo[7]annulen-3-ol]",6.74
2,"CN(CCCCCCC1=C(c2cc(F)cc(F)c2)CCCc2cc(O)ccc21)CCCC[S+]([O-])CCCC(F)(F)C(F)(F)F (stereo not drawn) [Example 4, 8-(3,5-Difluorophenyl)-9-[6-(methyl{4-[(4,4,5,5,5-pentafluoropentyl)sulphinyl]butyl}amino)hexyl]-6,7-dihydro-5H-benzo[7]annulen-3-ol]",8.22
3,"COCCN(CCCCCCC1=C(c2cc(F)cc(F)c2)CCCc2cc(O)ccc21)CCCS(=O)(=O)CCCC(F)(F)C(F)(F)F [Example 15, 8-(3,5-Difluorophenyl)-9-{6-[(2-methoxyethyl){3-[(4,4,5,5,5-pentafluoropentyl)sulphonyl]propyl}amino]hexyl}-6,7-dihydro-5H-benzo[7]annulen-3-ol]",7.59
4,"O=S(=O)(CCCN(CCCCCCC1=C(c2ccc(F)cc2)CCCc2c1ccc(O)c2F)Cc1ccc(F)cc1)CCCC(F)(F)C(F)(F)F [Example 65, 4-Fluoro-9-{6-[(4-fluorobenzyl){3-[(4,4,5,5,5-pentafluoropentyl)sulphonyl]propyl}amino]hexyl}-8-(4-fluorophenyl)-6,7-dihydro-5H-benzo[7]annulen-3-ol]",6.94
5,"CN(CCCCCCC1=C(c2ccc(F)cc2)CCCc2c1ccc(O)c2F)CCC[S+]([O-])CCC(F)(F)F (stereo not drawn) [Example 36, 4-Fluoro-8-(4-fluorophenyl)-9-[6-(methyl{3-[(3,3,3-trifluoropropyl)sulphinyl]propyl}amino)hexyl]-6,7-dihydro-5H-benzo[7]annulen-3-ol]",7.46
6,"CN(CCCCCCC1=C(c2ccc(F)c(F)c2)CCCc2cc(O)ccc21)CCC[S+]([O-])CCCC(F)(F)C(F)(F)F (stereo not drawn) [Example 24, 8-(3,4-Difluorophenyl)-9-[6-(methyl{3-[(4,4,5,5,5-pentafluoropentyl)sulphinyl]propyl}amino)hexyl]-6,7-dihydro-5H-benzo[7]annulen-3-ol]",8.10
7,"O=S(=O)(CCCN(CCCO)CCCCCCC1=C(c2ccc(F)cc2)CCCc2cc(O)ccc21)CCCC(F)(F)C(F)(F)F [Example 55, 8-(4-Fluorophenyl)-9-{6-[(3-hydroxypropyl){3-[(4,4,5,5,5-pentafluoropentyl)sulphonyl]propyl}amino]hexyl}-6,7-dihydro-5H-benzo[7]annulen-3-ol]",7.66
8,"CN(CCCCCC1=C(c2ccc(F)cc2)CCCc2cc(O)ccc21)CCCCS(=O)(=O)CCCC(F)(F)F [Example 49, 8-(4-Fluorophenyl)-9-[5-(methyl{4-[(4,4,4-trifluorobutyl)sulphonyl]butyl}amino)pentyl]-6,7-dihydro-5H-benzo[7]annulen-3-ol]",6.74
9,"CN(CCCCCCC1=C(c2ccc(F)c(F)c2)CCCc2cc(O)ccc21)CCCCS(=O)(=O)CCCC(F)(F)C(F)(F)F [Example 25, 8-(3,4-Difluorophenyl)-9-[6-(methyl{4-[(4,4,5,5,5-pentafluoropentyl)sulphonyl]butyl}amino)hexyl]-6,7-dihydro-5H-benzo[7]annulen-3-ol]",7.55

# Next, values leading:
row,pIC50,Structure (SMILES)
1,8.15,"O=S(=O)(CCCN(CCO)CCCCCCC1=C(c2ccc(F)cc2)CCCc2cc(O)ccc21)CCCC(F)(F)F [Example 97, 8-(4-Fluorophenyl)-9-{6-[(2-hydroxyethyl){3-[(4,4,4-trifluorobutyl)sulphonyl]propyl}amino]hexyl}-6,7-dihydro-5H-benzo[7]annulen-3-ol]"
2,8.15,"O=S(=O)(CCCCN(CCO)CCCCCCC1=C(c2ccc(F)cc2)CCCc2cc(O)c(F)cc21)CCCC(F)(F)F [Example 104, 2-Fluoro-8-(4-fluorophenyl)-9-{6-[(2-hydroxyethyl){4-[(4,4,4-trifluorobutyl)sulphonyl]butyl}amino]hexyl}-6,7-dihydro-5H-benzo[7]annulen-3-ol]"
3,8.52,"CN(CCCCCCC1=C(c2ccc(F)cc2F)CCCc2cc(O)ccc21)CCCCS(=O)(=O)CCC(F)(F)F [Example 131, 8-(2,4-Difluorophenyl)-9-[6-(methyl{4-[(3,3,3-trifluoropropyl)sulphonyl]butyl}amino)hexyl]-6,7-dihydro-5H-benzo[7]annulen-3-ol]"
4,7.49,"CN(CCCCCCC1=C(c2ccc(F)cc2F)CCCc2cc(O)ccc21)CCCCS(=O)(=O)CCCC(F)(F)C(F)(F)F [Example 147, 8-(2,4-Difluorophenyl)-9-[6-(methyl{4-[(4,4,5,5,5-pentafluoropentyl)sulphonyl]butyl}amino)hexyl]-6,7-dihydro-5H-benzo[7]annulen-3-ol]"
5,7.16,CN(CCCCCC1=C(c2ccc(F)cc2)CCCc2cc(O)ccc21)CCCS(=O)(=O)CCCC(F)(F)C(F)(F)F [Example 127]
6,8.00,"CN(CCCCCCC1=C(c2ccc(F)cc2)CCCc2cc(O)c(F)cc21)CCCCS(=O)(=O)CCC(F)(F)F [Example 106, 2-Fluoro-8-(4-fluorophenyl)-9-[6-(methyl{4-[(3,3,3-trifluoropropyl)sulphonyl]butyl}amino)hexyl]-6,7-dihydro-5H-benzo[7]annulen-3-ol]"
7,7.68,"O=C(O)CN(CCCCCCC1=C(c2ccc(F)cc2)CCCc2cc(O)ccc21)CCCCS(=O)(=O)CCCC(F)(F)F [Example 94, N-{6-[8-(4-Fluorophenyl)-3-hydroxy-6,7-dihydro-5H-benzo[7]annulen-9-yl]hexyl}-N-{4-[(4,4,4-trifluorobutyl)sulphonyl]butyl}glycine]"
8,7.62,"COC(=O)CCCN(CCCCCCC1=C(c2ccc(F)cc2)CCCc2cc(O)ccc21)CCCCS(=O)(=O)CCCC(F)(F)F [Example 88, Methyl-4-({6-[8-(4-fluorophenyl)-3-hydroxy-6,7-dihydro-5H-benzo[7]annulen-9-yl]hexyl}{4-[(4,4,4-trifluorobutyl)sulphonyl]butyl}amino)butanoate]"
9,8.30,"O=S(=O)(CCCN(CCO)CCCCCCC1=C(c2ccc(F)cc2)CCCc2cc(O)c(F)cc21)CCCC(F)(F)F [Example 103, 2-Fluoro-8-(4-fluorophenyl)-9-{6-[(2-hydroxyethyl){3-[(4,4,4-trifluorobutyl)sulphonyl]propyl}amino]hexyl}-6,7-dihydro-5H-benzo[7]annulen-3-ol]"
10,7.80,"CN(CCCCCCC1=C(c2ccc(F)cc2F)CCCc2cc(O)ccc21)CCCS(=O)(=O)CCC(F)(F)F [Example 130, 8-(2,4-Difluorophenyl)-9-[6-(methyl{3-[(3,3,3-trifluoropropyl)sulphonyl]propyl}amino)hexyl]-6,7-dihydro-5H-benzo[7]annulen-3-ol]"
11,7.68,"O=C(O)CCCN(CCCCCCC1=C(c2ccc(F)cc2)CCCc2cc(O)ccc21)CCCCS(=O)(=O)CCCC(F)(F)F [Example 96, 4-({6-[8-(4-Fluorophenyl)-3-hydroxy-6,7-dihydro-5H-benzo[7]annulen-9-yl]hexyl}{4-[(4,4,4-trifluorobutyl)sulphonyl]butyl}amino)butanoic acid]"
12,8.22,"[2H]C([2H])([2H])N(CCCCCCC1=C(c2cc(F)ccc2F)CCCc2cc(O)ccc21)CCCS(=O)(=O)CCCCC(F)(F)F [Example 137, 8-(2,5-Difluorophenyl)-9-{6-[(^2H3)methyl{3-[(5,5,5-trifluoropentyl)sulphonyl]propyl}amino]hexyl}-6,7-dihydro-5H-benzo[7]annulen-3-ol]"
